Experimental data published in patent publication US20260274856A1, “COVALENT CEREBLON LIGANDS” (C4 THERAPEUTICS, INC., priority 2023, published 2026).
Read-outs that look alike come from different tables or passages of the source.

Assays:
cellular cereblon (CRBN) = cellular cereblon (CRBN) (Homo sapiens, UniProt Q96SW2); assay: NanoBRET Target Engagement Assay, competition with pomalidomide tracer in 293T.116 cells; conditions: for NanoBRET TE 293T.116 CRBN 2 hours IP nM / NanoBRET TE 293T.116 CRBN 6 hours IP nM / NanoBRET TE 293T.116 CRBN 24 hours IP nM / IC50: 293T.116 cells
mutant BRAF V600E = mutant BRAF V600E (Homo sapiens, UniProt P15056, V600E); assay: BRAF V600E HiBiT Degradation Assay in A375.10 cells; conditions: for HiBIT-Degradation A375.10 BRAF 2 hours IP nM: inflection point of the dose-response curve; for DC50: read-out: HIBIT-Degradation A375.10 BRAF 2 hours DC50 nM; for Emax: read-out: HiBIT-Degradation A375.10 BRAF 2 hours Emax
[1] = NanoBRET TE 293T.116 CRBN 2 hours IC50 nM, 2 hours incubation
[2] = NanoBRET TE 293T.116 CRBN 6 hours IC50 nM, 6 hours incubation
[3] = NanoBRET TE 293T.116 CRBN 24 hours IC50 nM, 24 hours incubation
[4] = read-out: NanoBRET TE 293T.116 CRBN 2 hours Emax
[5] = read-out: NanoBRET TE 293T.116 CRBN 6 hours Emax
[6] = read-out: NanoBRET TE 293T.116 CRBN 24 hours Emax

Row | Structure (SMILES) | HiBIT-Degradation A375.10 BRAF 2 hours IP nM (mutant BRAF V600E; 2 hours, A375.10 cells) | DC50 (mutant BRAF V600E; 2 hours, A375.10 cells) | Emax (mutant BRAF V600E) | also measured
1 | O=C1CCC(Oc2ccc(C3CCNCC3)c(S(=O)(=O)F)c2)C(=O)N1 (stereo not drawn) [Compound A-38, 5-((2,6-dioxopiperidin-3-yl)oxy)-2-(piperidin-4-yl)benzenesulfonyl fluoride] |  |  |  | NanoBRET TE 293T.116 CRBN 2 hours IP nM (cellular cereblon (CRBN); 2 hours incubation): *** (<= 1 μM is ***); NanoBRET TE 293T.116 CRBN 6 hours IP nM (cellular cereblon (CRBN); 6 hours incubation): *** (<= 1 μM is ***); NanoBRET TE 293T.116 CRBN 24 hours IP nM (cellular cereblon (CRBN); 24 hours incubation): *** (<= 1 μM is ***); IC50 (cellular cereblon (CRBN); [1]): < 1000 nM; IC50 (cellular cereblon (CRBN); [2]): < 1000 nM; IC50 (cellular cereblon (CRBN); [3]): < 1000 nM; Emax (cellular cereblon (CRBN); [4]): < 50%; Emax (cellular cereblon (CRBN); [5]): < 50%; Emax (cellular cereblon (CRBN); [6]): < 50%
2 | O=C1CCN(c2ccc(N3CCNCC3)c(OS(=O)(=O)F)c2)C(=O)N1 [Compound A-39, 5-(2,4-dioxotetrahydropyrimidin-1(2H)-yl)-2-(piperazin-1-yl)phenyl sulfurofluoridate] |  |  |  | NanoBRET TE 293T.116 CRBN 2 hours IP nM (cellular cereblon (CRBN); 2 hours incubation): * (>=10 μM is *); IC50 (cellular cereblon (CRBN); [1]): > 10000 nM; Emax (cellular cereblon (CRBN); [4]): 50 to 80%
3 | O=C1CCC(CNc2cccc(OS(=O)(=O)F)c2)C(=O)N1 (stereo not drawn) [Compound A-40, 3-(((2,6-dioxopiperidin-3-yl)methyl)amino)phenyl sulfurofluoridate] |  |  |  | NanoBRET TE 293T.116 CRBN 2 hours IP nM (cellular cereblon (CRBN); 2 hours incubation): * (>=10 μM is *); NanoBRET TE 293T.116 CRBN 6 hours IP nM (cellular cereblon (CRBN); 6 hours incubation): * (>=10 μM is *); NanoBRET TE 293T.116 CRBN 24 hours IP nM (cellular cereblon (CRBN); 24 hours incubation): ** (<10 μM and >1 μM is **); IC50 (cellular cereblon (CRBN); [1]): > 10000 nM; IC50 (cellular cereblon (CRBN); [2]): 1000 to 10000 nM; IC50 (cellular cereblon (CRBN); [3]): 1000 to 10000 nM; Emax (cellular cereblon (CRBN); [4]): 50 to 80%; Emax (cellular cereblon (CRBN); [5]): < 50%; Emax (cellular cereblon (CRBN); [6]): < 50%
4 | O=C1CCN(c2ccc(N3CCNCC3)c(OS(=O)(=O)F)c2)C(=O)N1 [drawing 1142] |  |  |  | NanoBRET TE 293T.116 CRBN 6 hours IP nM (cellular cereblon (CRBN); 6 hours incubation): * (>=10 μM is *); IC50 (cellular cereblon (CRBN); [2]): 1000 to 10000 nM; Emax (cellular cereblon (CRBN); [5]): < 50%
5 | O=C1CCN(c2ccc(N3CCNCC3)c(OS(=O)(=O)F)c2)C(=O)N1 [drawing 1166] |  |  |  | NanoBRET TE 293T.116 CRBN 24 hours IP nM (cellular cereblon (CRBN); 24 hours incubation): ** (<10 μM and >1 μM is **); IC50 (cellular cereblon (CRBN); [3]): 1000 to 10000 nM; Emax (cellular cereblon (CRBN); [6]): < 50%
6 | CCN(C)S(=O)(=O)Nc1ccc(F)c(Oc2ccc3ncn([C@@H]4COC5(CCN(C(=O)CN6CCC(c7ccc(C8CCC(=O)NC8=O)cc7OS(=O)(=O)F)CC6)CC5)C4)c(=O)c3c2)c1C#N (stereo partly drawn) [drawing 1189] | *** (<= 1 μM is) | 1000 to 10000 nM | 60 to 95% | 
7 | CCN(C)S(=O)(=O)Nc1ccc(F)c(Oc2ccc3ncn([C@H]4COC5(CCN(C(=O)CN6CCC(c7ccc(C8CCC(=O)NC8=O)cc7OS(=O)(=O)F)CC6)CC5)C4)c(=O)c3c2)c1C#N (stereo partly drawn) [drawing 1190] | *** (<= 1 μM is) | < 1000 nM | < 60% | 
8 | CCN(C)S(=O)(=O)Nc1ccc(F)c(Oc2ccc3ncn([C@H]4COC5(CCN(C(=O)CN6CCN(c7ccc(C8CCC(=O)NC8=O)cc7OS(=O)(=O)F)CC6)CC5)C4)c(=O)c3c2)c1C#N (stereo partly drawn) [drawing 1191] | *** (<= 1 μM is) | 1000 to 10000 nM | < 60% | 
9 | CCN(C)S(=O)(=O)Nc1ccc(F)c(Oc2ccc3ncn([C@@H]4COC5(CCN(C(=O)CN6CCC(c7ccc(N8CCC(=O)NC8=O)cc7OS(=O)(=O)F)CC6)CC5)C4)c(=O)c3c2)c1C#N [drawing 1192] | * (>=10 μM is *) | > 10000 nM | > 95% | 
10 | CCN(C)S(=O)(=O)Nc1ccc(F)c(Oc2ccc3ncn([C@H]4COC5(CCN(C(=O)CN6CCC(c7ccc(N8CCC(=O)NC8=O)cc7OS(=O)(=O)F)CC6)CC5)C4)c(=O)c3c2)c1C#N [drawing 1193] | * (>=10 μM is *) | > 10000 nM | > 95% | 
11 | CCN(C)S(=O)(=O)Nc1ccc(F)c(Oc2ccc3ncn([C@H]4COC5(CCN(C(=O)CN6CCN(c7ccc(N8CCC(=O)NC8=O)cc7OS(=O)(=O)F)CC6)CC5)C4)c(=O)c3c2)c1C#N [drawing 1194] | * (>=10 μM is *) | > 10000 nM | > 95% | 
12 | CCN(C)S(=O)(=O)Nc1ccc(F)c(Oc2ccc3ncn([C@@H]4COC5(CCN(C(=O)CN6CCN(c7ccc(N8CCC(=O)NC8=O)cc7OS(=O)(=O)F)CC6)CC5)C4)c(=O)c3c2)c1C#N [drawing 1195] | * (>=10 μM is *) | > 10000 nM | 60 to 95% | 
13 | CCN(C)S(=O)(=O)Nc1ccc(F)c(Oc2ccc3ncn([C@H]4COC5(CCN(C(=O)CN6CCC(c7ccc(OC8CCC(=O)NC8=O)cc7OS(=O)(=O)F)CC6)CC5)C4)c(=O)c3c2)c1C#N (stereo partly drawn) [drawing 1196] | *** (<= 1 μM is) | 1000 to 10000 nM | < 60% | 
14 | CCN(C)S(=O)(=O)Nc1ccc(F)c(Oc2ccc3ncn([C@H]4COC5(CCN(C(=O)CN6CCC(c7ccc(NC8CCC(=O)NC8=O)cc7S(=O)(=O)F)CC6)CC5)C4)c(=O)c3c2)c1C#N (stereo partly drawn) [drawing 1197] | *** (<= 1 μM is) | > 10000 nM | 60 to 95% | 
15 | CCN(C)S(=O)(=O)Nc1ccc(F)c(Oc2ccc3ncn([C@@H]4COC5(CCN(C(=O)CN6CCC(c7ccc(OC8CCC(=O)NC8=O)cc7S(=O)(=O)F)CC6)CC5)C4)c(=O)c3c2)c1C#N (stereo partly drawn) [drawing 1198] | *** (<= 1 μM is) | 1000 to 10000 nM | 60 to 95% | 
16 | CCN(C)S(=O)(=O)Nc1ccc(F)c(Oc2ccc3ncn([C@H]4COC5(CCN(C(=O)CN6CCN(c7ccc(C8CCC(=O)NC8=O)cc7OS(=O)(=O)F)CC6)CC5)C4)c(=O)c3c2)c1C#N (stereo partly drawn) [drawing 1199] | *** (<= 1 μM is) | > 10000 nM |  | HiBIT-Degradation A375.10 BRAF 2 hours Emax (mutant BRAF V600E; 2 hours, A375.10 cells, residual protein remaining): *** (<= 60% is)
17 | CCN(C)S(=O)(=O)Nc1ccc(F)c(Oc2ccc3ncn([C@H]4COC5(CCN(C(=O)CN6CCC(c7ccc(OC8CCC(=O)NC8=O)cc7S(=O)(=O)F)CC6)CC5)C4)c(=O)c3c2)c1C#N (stereo partly drawn) [drawing 1200] | *** (<= 1 μM is) | 1000 to 10000 nM | 60 to 95% | 
18 | CCN(C)S(=O)(=O)Nc1ccc(F)c(Oc2ccc3ncn([C@@H]4COC5(CCN(C(=O)CN6CCC(c7ccc(OC8CCC(=O)NC8=O)cc7OS(=O)(=O)F)CC6)CC5)C4)c(=O)c3c2)c1C#N (stereo partly drawn) [drawing 1201] | *** (<= 1 μM is) | 1000 to 10000 nM | 60 to 95% | 
19 | CCN(C)S(=O)(=O)Nc1ccc(F)c(Oc2ccc3ncn([C@H]4COC5(CCN(C(=O)CN6CCC(c7ccc(NC8CCC(=O)NC8=O)cc7OS(C)(=O)=O)CC6)CC5)C4)c(=O)c3c2)c1C#N (stereo partly drawn) [drawing 1202] | *** (<= 1 μM is) | 1000 to 10000 nM | < 60% | 
20 | CCN(C)S(=O)(=O)Nc1ccc(F)c(Oc2ccc3ncn([C@@H]4COC5(CCN(C(=O)CN6CCC(c7ccc(N8CCC(=O)NC8=O)cc7OS(C)(=O)=O)CC6)CC5)C4)c(=O)c3c2)c1C#N [drawing 1203] | *** (<= 1 μM is) | > 10000 nM | < 60% | 
21 | CCN(C)S(=O)(=O)Nc1ccc(F)c(Oc2ccc3ncn([C@H]4COC5(CCN(C(=O)CN6CCC(c7ccc(OC8CCC(=O)NC8=O)cc7OS(C)(=O)=O)CC6)CC5)C4)c(=O)c3c2)c1C#N (stereo partly drawn) [drawing 1204] | *** (<= 1 μM is) | 1000 to 10000 nM | < 60% | 
22 | CCN(C)S(=O)(=O)Nc1ccc(F)c(Oc2ccc3ncn([C@H]4COC5(CCN(C(=O)CN6CCC(c7ccc(N8CCC(=O)NC8=O)cc7OS(C)(=O)=O)CC6)CC5)C4)c(=O)c3c2)c1C#N [drawing 1205] | ** (<10 μM and >1 μM is **) | 1000 to 10000 nM | < 60% | 
